Test results taken from patent US20170152258A9, “Substituted Pyridopyrazines as Syk Inhibitors” (HUTCHISON MEDIPHARMA LIMITED, priority 2012, published 2017).

What was measured:
Syk kinase = Syk kinase (Homo sapiens, UniProt P43405); assay: SYK Enzymatic Assay (Z-LYTE Tyr 2 peptide); assay type: biochemical; conditions: 8 concentrations 1 μM down to 0.0003 μM
How it was run: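 Z-LYTE format using Tyr 2 peptide. After the 1 h room-temperature kinase reaction, development reagent was added for 1 h, then stop reagent. Fluorescence was read at 445 and 520 nm. Compounds were tested at 8 concentrations, 1 μM down to 0.0003 μM (1:3 dilutions).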

RBL-2H3 cells = assay: IgE-induced Beta-hexosaminidase secretion in RBL-2H3 cells; assay type: cell-based; conditions: DNP-BSA stimulation
How it was run: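 RBL-2H3 cells sensitized overnight with 0.5 ug/ml SPE-7 IgE, washed, preincubated with compound 20 min at 37° C, then stimulated with DNP-BSA (150 ng/mL stock) for 45 min. Released β-hexosaminidase measured on supernatant with 1 mM 4-nitrophenyl N-acetyl-β-D-glucosaminide, pH 4.5, 1.5 hr at 37° C; absorbance 405 nm after carbonate quench.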

[1] = Rattus norvegicus, RBL-2H3, IgE-induced Beta-hexosaminidase secretion

Row | SMILES | IC50 (Syk kinase) [nM] | IC50 (RBL-2H3 cells; [1]) [nM] | IC50 (RBL-2H3 cells; IgE-induced Beta-hexosaminidase secretion) [nM]
1 | CN1CCc2cc(-c3cc4nccnc4c(OC[C@@H]4CN(S(N)(=O)=O)CCO4)n3)ccc21 [Compound 215] | 19 | 40 | 
2 | CN1CCc2cc(-c3cc4nccnc4c(OC[C@@H]4CN(C(N)=O)CCO4)n3)ccc21 [Compound 216] | 49 | 122 | 
3 | c1cnc2c(O[C@@H]3CCOC3)nc(-c3ccc(C4CCOCC4)cc3)cc2n1 [Compound 217] | 45 | 68 | 
4 | CN(C)c1ccc(-c2cc3nccnc3c(OC[C@@H]3CN(S(C)(=O)=O)CCO3)n2)cn1 [Compound 218] | 26 | 27 | 
5 | CNS(=O)(=O)N1CCO[C@H](COc2nc(-c3ccc(OC)c(OC)c3)cc3nccnc23)C1 [Compound 220] | 86 | 69 | 
6 | CNS(=O)(=O)N1CCO[C@H](COc2nc(-c3ccc(N(C)C)c(C)c3)cc3nccnc23)C1 [Compound 221] | 44 | 38 | 
7 | CCc1ccc(-c2cc3nccnc3c(OC[C@@H]3CN(C(=O)NC)CCO3)n2)cc1 [Compound 222] | 84 | 105 | 
8 | O=C1C[C@H](COc2nc(-c3ccc(N4CCOCC4)cc3)cc3nccnc23)CN1 [Compound 223] | 57 | 121 | 
9 | Cc1cc(-c2cc3nccnc3c(OC[C@@H]3CNC(=O)C3)n2)ccc1N1CCOCC1 [Compound 224] | 48 | 103 | 
10 | CN1CCN(c2ccc(-c3cc4nccnc4c(OC[C@@H]4CNC(=O)C4)n3)cc2)CC1 [Compound 225] | 47 | 302 | 
11 | Cc1cc(-c2cc3nccnc3c(OC[C@@H]3CNC(=O)C3)n2)ccc1N(C)C [Compound 226] | 29 | 60 | 
12 | OCCN1CCC(c2ccc(-c3cc4nccnc4c(O[C@@H]4CCOC4)n3)cc2)CC1 [Compound 227] | 37 | 70 | 
13 | CC(C)(O)C1CCN(c2ccc(-c3cc4nccnc4c(O[C@@H]4CCOC4)n3)cc2)CC1 [Compound 228] | 28 | 39 | 
14 | C[C@@H]1CN(c2ccc(-c3cc4nccnc4c(O[C@@H]4CCOC4)n3)cc2)C[C@H](C)O1 [Compound 229] | 49 | 94 | 
15 | CC(F)(F)c1ccc(-c2cc3nccnc3c(OC[C@@H]3CN(S(C)(=O)=O)CCO3)n2)cc1 [Compound 230] | 152 | 429 | 
16 | CC(C)(C(N)=O)c1ccc(-c2cc3nccnc3c(OC[C@@H]3CN(S(C)(=O)=O)CCO3)n2)cc1 [Compound 231] | 42 | 87 | 
17 | CN(C)c1ccc(-c2cc3nccnc3c(OC[C@H]3CNC(=O)C3)n2)cc1 [Compound 232] | 67 | 56 | 
18 | NC(=O)N1CCO[C@H](COc2nc(-c3ccc(C4CCOCC4)cc3)cc3nccnc23)C1 [Compound 241, (S)-2-(((7-(4-(tetrahydro-2H-pyran-4-yl)phenyl)pyrido[3,4-b]pyrazin-5-yl)oxy)methyl)morpholine-4-carboxamide] | 47 | 124 | 
19 | CC(Oc1nc(-c2ccc(N(C)C)cc2)cc2nccnc12)C1CN(S(N)(=O)=O)CCO1 (stereo not drawn) [Compound 246] | 95 | 44 | 
20 | CC(=O)N1CCO[C@H](COc2nc(-c3ccc(C(C)(C)C#N)cc3)cc3nccnc23)C1 [Compound 248] | 88 | 54 | 
21 | CNC(=O)N1CCO[C@H](COc2nc(-c3ccc(C(C)(C)C#N)cc3)cc3nccnc23)C1 [Compound 249] | 42 | 69 | 
22 | CC(C)(C#N)c1ccc(-c2cc3nccnc3c(OCC3CN(S(N)(=O)=O)CCO3)n2)cc1 (stereo not drawn) [Compound 250] | 28 | 112 | 
23 | CNS(=O)(=O)N1CCOC(COc2nc(-c3ccc(C(C)(C)C#N)cc3)cc3nccnc23)C1 (stereo not drawn) [Compound 251] | 75 | 83 | 
24 | CC(C)(C#N)c1ccc(-c2cc3nccnc3c(OC[C@@H]3CN(C(N)=O)CCO3)n2)cc1 [Compound 252] | 31 | 381 | 
25 | CC(=O)N1CCO[C@H](COc2nc(-c3ccc(C(C)(C)C)cc3)cc3nccnc23)C1 [Compound 254] | 55 | 99 | 

Row | SMILES | IC50 (Syk kinase) [nM] | IC50 (RBL-2H3 cells; [1]) [nM] | IC50 (RBL-2H3 cells; IgE-induced Beta-hexosaminidase secretion) [nM]
26 | CC(C)(C)c1ccc(-c2cc3nccnc3c(OC[C@@H]3CN(C(N)=O)CCO3)n2)cc1 [Compound 255] | 27 | 97 | 
27 | CC(C)(C)c1ccc(-c2cc3nccnc3c(OC[C@@H]3CN(S(C)(=O)=O)CCO3)n2)cc1 [Compound 256] | 36 | 92 | 
28 | CC(C)(C)c1ccc(-c2cc3nccnc3c(OC[C@@H]3CN(S(N)(=O)=O)CCO3)n2)cc1 [Compound 257] | 63 | 160 | 
29 | CS(=O)(=O)N1CCO[C@H](COc2nc(-c3ccc(CN4CCOCC4)cc3)cc3nccnc23)C1 [Compound 258] | 81 | 187 | 
30 | CC(=O)N(C)Cc1ccc(-c2cc3nccnc3c(OC[C@@H]3CN(S(C)(=O)=O)CCO3)n2)cc1 [Compound 259] | 54 | 297 | 
31 | NS(=O)(=O)N1CCO[C@H](COc2nc(-c3ccc(C4CCOCC4)cc3)cc3nccnc23)C1 [Compound 260] | 24 | 135 | 
32 | CS(=O)(=O)N1CCC(c2ccc(-c3cc4nccnc4c(OC[C@@H]4CNC(=O)C4)n3)cc2)CC1 [Compound 261, (S)-4-(((7-(4-(1-(methylsulfonyl)piperidin-4-yl)phenyl)pyrido[3,4-b]pyrazin-5-yl)oxy)methyl)pyrrolidin-2-one] | 52 | 418 | 
33 | CNS(=O)(=O)N1CCOC(COc2nc(-c3ccc(C(C)(C)O)cc3)cc3nccnc23)C1 (stereo not drawn) [Compound 262] | 79 | 269 | 
34 | CC(C)(O)c1ccc(-c2cc3nccnc3c(OC[C@@H]3CN(S(N)(=O)=O)CCO3)n2)cc1 [Compound 263] | 23 | 400 | 
35 | CNC(=O)N1CCO[C@H](COc2nc(-c3ccc(C(C)(C)O)cc3)cc3nccnc23)C1 [Compound 264] | 38 | 339 | 
36 | CC(=O)N1CCO[C@H](COc2nc(-c3ccc(C(C)(C)O)cc3)cc3nccnc23)C1 [Compound 265] | 88 | 166 | 
37 | CC(C)(O)c1ccc(-c2cc3nccnc3c(OC[C@@H]3CN(C(N)=O)CCO3)n2)cc1 [Compound 266] | 44 | 1090 | 
38 | CC(=O)N1CCO[C@H](COc2nc(-c3ccc(C(C)(C)CN)cc3)cc3nccnc23)C1 [Compound 267] | 477 | 1260 | 
39 | COC(C)(C)c1ccc(-c2cc3nccnc3c(OC[C@@H]3CN(S(C)(=O)=O)CCO3)n2)cc1 [Compound 268] | 18 | 36 | 
40 | COC(C)(C)c1ccc(-c2cc3nccnc3c(OC[C@@H]3CN(C(C)=O)CCO3)n2)cc1 [Compound 269] | 91 | 88 | 
41 | CCC(O)(CC)c1ccc(-c2cc3nccnc3c(OC[C@@H]3CN(C(C)=O)CCO3)n2)cc1 [Compound 270] | 179 | 185 | 
42 | CC(C)(O)Cc1ccc(-c2cc3nccnc3c(OC[C@@H]3CN(S(C)(=O)=O)CCO3)n2)cc1 [Compound 273] | 85 | 176 | 
43 | CS(=O)(=O)N1CCO[C@H](COc2nc(-c3ccc(C4(C#N)CC4)cc3)cc3nccnc23)C1 [Compound 274] | 40 | 59 | 
44 | CCC(O)(CC)c1ccc(-c2cc3nccnc3c(OC[C@@H]3CN(S(C)(=O)=O)CCO3)n2)cc1 [Compound 279] | 35 | 87 | 
45 | CCC(O)(CC)c1ccc(-c2cc3nccnc3c(OC[C@@H]3CN(C(N)=O)CCO3)n2)cc1 [Compound 281] | 65 | 663 | 
46 | CS(=O)(=O)N1CCO[C@H](COc2nc(-c3ccc(C4(C#N)CCC4)cc3)cc3nccnc23)C1 [Compound 282] | 26 | 92 | 
47 | CCC(O)(CC)c1ccc(-c2cc3nccnc3c(OC[C@@H]3CN(S(N)(=O)=O)CCO3)n2)cc1 [Compound 283] | 44 | 248 | 
48 | CC(C)(C)C(O)c1ccc(-c2cc3nccnc3c(OC[C@@H]3CN(S(C)(=O)=O)CCO3)n2)cc1 (stereo partly drawn) [Compound 284] | 97 | 194 | 
49 | CC(C)(CO)c1ccc(-c2cc3nccnc3c(OC[C@@H]3CN(S(C)(=O)=O)CCO3)n2)cc1 [Compound 288] | 25 | 85 | 48
